Data as given in patent US20080153819A1, “METHODS FOR TREATING MACULAR EDEMA AND PATHOLOGIC OCULAR ANGIOGENESIS USING A NEUROPROTECTIVE AGENT AND A RECEPTOR TYROSINE KINASE INHIBITOR” (priority 2006, published 2008).

What was measured:
[1] = system: diabetes-induced retinal vascular permeability; test: Diabetes-induced retinal vascular permeability in the STZ rat model, oral gavage; type: in vivo
Method: METHODS: Diabetes was induced in male Long-Evans rats with 65 mg/kg streptozotocin (STZ) after an overnight fast. Upon confirmation of diabetes (blood glucose >250 mg/dl), treatment was initiated by oral gavage. Non-diabetic (NDM) and diabetic (DM) rats received oral gavage of either vehicle or RTK inhibitor at 1.5 or 5 mg/kg/d BID. After 2 weeks, jugular vein catheters were implanted 1 day prior to experimentation for the infusion of indicator dye. Retinal vascular permeability, RVP, was measured using Evan's blue albumin permeation (45 mg/kg) after a 2 hour circulation period.

[2] = system: laser-induced choroidal neovascularization (CNV); test: Laser-induced CNV in the mouse, oral gavage, prevention paradigm; type: in vivo
[3] = system: laser-induced choroidal neovascularization (CNV); test: Laser-induced choroidal neovascularization (CNV) in the mouse, prevention, intravitreal injection; type: in vivo
Method: (§1) METHODS: CNV was generated by laser-induced rupture of Bruch's membrane. Briefly, 4 to 5 week old male C57BL/6J mice were anesthetized using intraperitoneal administration of ketamine hydrochloride (100 mg/kg) and xylazine (5 mg/kg) and the pupils of both eyes dilated with topical ocular instillation of 1% tropicamide and 2.5% Mydfin®. One drop of topical cellulose (Gonioscopic®) was used to lubricate the cornea. A hand-held cover slip was applied to the cornea and used as a contact lens to aid visualization of the fundus. Three to four retinal burns were placed in randomly assigned eye (right or left eye for each mouse) using the Alcon 532 nm EyeLite laser with a slit lamp delivery system. The laser burns were used to generate a rupture in Bruch's membrane, which was indicated opthalmoscopically by the formation of a bubble under the retina. Only mice with laser burns that produced three bubbles per eye were included in the study. Burns were typically placed at the 3, 6, 9 or 12 o'clock positions in the posterior pole of the retina, avoiding the branch retinal arteries and veins.
Each mouse was randomly assigned into one of the following treatment groups: noninjected controls, sham-injected controls, vehicle-injected mice, or one of three RTKi-injected groups. […]

[4] = system: preretinal neovascularization (NV); test: Rat OIR model, oral gavage; type: in vivo
Method: Immediately following euthanasia, retinas from all rat pups were harvested, fixed in 10% neutral buffered formalin for 24 hours, subjected to ADPase staining, and fixed onto slides as whole mounts. Digital images were acquired from each retinal flat mount that was adequately prepared. Computerized image analysis was used to obtain a NV clockhour score from each readable sample. Each clockhour out of 12 total per retina was assessed for the presence or absence of preretinal NV. Statistical comparisons using median scores for NV clockhours from each treatment group were utilized in nonparametric analyses. Each noninjected pup represented one NV score by taking the average value of both eyes and was used in comparisons against each dosage group. Because the pups were randomly assigned and no difference was observed between oxygen-exposed control pups from all litters, the NV scores were combined for all treatment groups. P≦0.05 was considered statistically significant. METHODS: Pregnant Sprague-Dawley rats were received at 14 days gestation and subsequently gave birth on Day 22±1 of gestation. Immediately following parturition, pups were pooled and randomized into separate litters (n=17 pups/litter), placed into separate shoebox cages inside oxygen delivery chamber, and subjected to an oxygen-exposure profile from Day 0 to Day 14 postpartum. Litters were then placed into room air from Day 14/0 through Day 14/6 (days 14-20 postpartum). Additionally on Day 14/0, each pup was randomly assigned as oxygen-exposed controls, vehicle treated, or drug-treated at 1.5, 5, 10 mg/kg, p.o., BID. At Day 14/6 (20 days postpartum), all animals in both studies were euthanized and retina whole mounts were prepared as described in Example 1 above.

[5] = system: existing laser-induced choroidal neovascularization (CNV); test: Laser-induced CNV in the mouse, oral gavage, regression paradigm; type: in vivo; conditions: 3 mg/kg/day p.o. from day 7 after laser
[6] = system: preretinal neovascularization (NV); test: Rat model of oxygen-induced retinopathy (OIR), single intravitreal injection; type: in vivo; conditions: for % Inhibition (vs. vehicle-injected eye) of preretinal NV / Median NV (clockhour score): 5 μl intravitreal injection; for % Inhibition (vs. vehicle-injected eye) of preretinal NV: Day 14/6
From the text: METHODS: Pregnant Sprague-Dawley rats were received at 14 days gestation and subsequently gave birth on Day 22±1 of gestation. Immediately following parturition, pups were pooled and randomized into separate litters (n=17 pups/litter), placed into separate shoebox cages inside oxygen delivery chamber, and subjected to an oxygen-exposure profile from Day 0-14 postpartum. Litters were then placed into room air from Day 14/0 through Day 14/6 (days 14-20 postpartum). Additionally on Day 14/0, each pup was randomly assigned as an oxygen-exposed control or into various treatment groups. For those randomized into an injection treatment group: one eye received a 5 μl intravitreal injection of 0.1%, 0.3%, 0.6%, or 1% RTKi and the contralateral eye received a 5 μl intravitreal injection of vehicle. At Day 14/6 (20 days postpartum), all animals in both studies were euthanized. Immediately following euthanasia, retinas from all rat pups were harvested, fixed in 10% neutral buffered formalin for 24 hours, subjected to ADPase staining, and fixed onto slides as whole mounts. Digital images were acquired from each retinal flat mount that was adequately prepared. Computerized image analysis was used to obtain a NV clockhour score from each readable sample. Each clockhour out of 12 total per retina was assessed for the presence or absence of preretinal NV. Statistical comparisons using median scores for NV clockhours from each treatment group were utilized in nonparametric analyses. Each noninjected pup represented one NV score by taking the average value of both eyes and was used in comparisons against each dosage group. Because the pups were randomly assigned and no difference was observed between oxygen-exposed control pups from all litters, the NV scores were combined for all treatment groups. P≦0.05 was considered statistically significant.

[7] = system: existing laser-induced choroidal neovascularization (CNV); test: Regression of existing laser-induced CNV in the mouse, intravitreal injection at 7 days post-laser; type: in vivo
Method: as §1, with “veins. […]” for “veins.”
METHODS: CNV was generated by laser-induced rupture of Bruch's membrane as described above in Example 3. […] Choroidal flat mounts were analyzed as described above in Example 3.

diabetic macular edema = conditions: topical ocular administration, Japanese patients with diabetic macular edema; cited from earlier work
exudative AMD = conditions: Phase III, patients treated, at 24 months, up to; cited from earlier work

Cc1ccc(F)c(NC(=O)Nc2ccc(-c3cccc4[nH]nc(N)c34)cc2)c1 [Compound 86, N-[4-[3-amino-1H-indazol-4-yl]phenyl]-N′-(2-fluoro-5-methylphenyl)urea]
RVP in non-diabetic rats (in words) ([1]; NDM treated at 5 mg/kg/d oral gavage): unchanged
Blood glucose levels and body weights, DM control versus DM treatment groups ([1]; oral gavage, DM rats): not different
systemic or ERG side effects ([1]; oral, NDM and DM groups): no observed systemic or ERG side effects
tolerability ([1]; oral, NDM and DM groups): well tolerated
inhibition of CNV (in words) ([2]; 20 mg/kg/d p.o., prevention paradigm): complete inhibition of CNV
effect on laser-induced CNV (in words, FIG. 6) ([2]; oral gavage): inhibits laser-induced choroidal neovascularization (CNV)
difference in CNV versus vehicle injected eyes (in words) ([3]; 0.3% RTKi, 5 ul intravitreal): marginal statistical difference
effect on laser-induced CNV (in words, FIG. 3) ([3]; single intravitreal injection): inhibits laser-induced choroidal neovascularization (CNV)
% Inhibition (vs vehicle-injected eye) of preretinal NV ([4]; 3 mg/kg RTKi in PEG 400, p.o.): −1.4%
Median NV (clockhour score) ([4]; 3 mg/kg RTKi in PEG 400, p.o.): 7.5
decrease in NV (in words) ([4]; 3 mg/kg/day p.o.): did not have a significant decrease in NV
% Inhibition (vs vehicle-injected eye) of preretinal NV ([4]; 20 mg/kg RTKi in PEG 400, p.o.): 100%
Median NV (clockhour score) ([4]; 20 mg/kg RTKi in PEG 400, p.o.): 0
inhibition of preretinal NV (in words) ([4]; 20 mg/kg/day p.o.): complete inhibition of preretinal NV
effect on preretinal NV (in words, FIG. 2) ([4]; oral gavage): prevents preretinal neovascularization (NV)
regression of existing CNV (in words) [5]: did not show a significant regression of existing CNV
% Inhibition (vs. vehicle-injected eye) of preretinal NV ([6]; 0.1% RTKi): 37%
efficacy against preretinal NV (in words) ([6]; 0.1% treated eyes, intravitreal): Efficacy was not observed
Median NV (clockhour score) ([6]; 0.3% RTKi): 0
% Inhibition (vs. vehicle-injected eye) of preretinal NV ([6]; 0.3% RTKi): 100%
Median NV (clockhour score) ([6]; 0.6% RTKi): 0
% Inhibition (vs. vehicle-injected eye) of preretinal NV ([6]; 0.6% RTKi): 100%
Median NV (clockhour score) ([6]; 1% RTKi): 0
% Inhibition (vs. vehicle-injected eye) of preretinal NV ([6]; 1% RTKi): 100%
effect on preretinal NV (in words, FIG. 1) ([6]; single intravitreal injection): inhibits preretinal neovascularization (NV)
reduction of median CNV area at 14 days compared to CNV present at 7 days post-laser ([7]; 5 μl 3% RTKi intravitreal at day 7): 41.0%
effect on existing laser-induced CNV (in words, FIG. 4) ([7]; single intravitreal injection): induces regression of existing laser-induced choroidal neovascularization (CNV)

CC(C)NCC(O)COc1ccc(CCOCC2CC2)cc1 (centres unmarked) [betaxolol]
effect on vision (in words) (diabetic macular edema): stabilized vision

B1: ranibizumab (antibody, chains of the INN, looked up, V domains shown)
VH: EVQLVESGGGLVQPGGSLRLSCAASGYDFTHYGMNWVRQAPGKGLEWVGWINTYTGEPTYAADFKRRFTFSLDTSKSTAYLQMNSLRAEDTAVYYCAKYPYYYGTSHWYFDVWGQGTLVTVSS
VL: DIQLTQSPSSLSASVGDRVTITCSASQDISNYLNWYQQKPGKAPKVLIYFTSSLHSGVPSRFSGSGSGTDFTLTISSLQPEDFATYYCQQYSTVPWTFGQGTKVEIK
modifications: Fab
patients with improved visual acuity (exudative AMD): 35-40%
